Reference: patent publication US20230302150A1, “ANTIBODY-TLR AGONIST CONJUGATES, METHODS AND USES THEREOF” (Ambrx, Inc., priority 2020, published 2023)
Read-outs that look alike come from different tables or passages of the source. Values belong to the molecule of their own block, whether it stands above or below them.

Biological target: T1, hTLR7 (Homo sapiens, UniProt Q9NYK1)
T1 construct: expressed in transfected cells; host or cells: HEK-Blue hTLR7 reporter cell line
T1 sequence (Q9NYK1 27-1049): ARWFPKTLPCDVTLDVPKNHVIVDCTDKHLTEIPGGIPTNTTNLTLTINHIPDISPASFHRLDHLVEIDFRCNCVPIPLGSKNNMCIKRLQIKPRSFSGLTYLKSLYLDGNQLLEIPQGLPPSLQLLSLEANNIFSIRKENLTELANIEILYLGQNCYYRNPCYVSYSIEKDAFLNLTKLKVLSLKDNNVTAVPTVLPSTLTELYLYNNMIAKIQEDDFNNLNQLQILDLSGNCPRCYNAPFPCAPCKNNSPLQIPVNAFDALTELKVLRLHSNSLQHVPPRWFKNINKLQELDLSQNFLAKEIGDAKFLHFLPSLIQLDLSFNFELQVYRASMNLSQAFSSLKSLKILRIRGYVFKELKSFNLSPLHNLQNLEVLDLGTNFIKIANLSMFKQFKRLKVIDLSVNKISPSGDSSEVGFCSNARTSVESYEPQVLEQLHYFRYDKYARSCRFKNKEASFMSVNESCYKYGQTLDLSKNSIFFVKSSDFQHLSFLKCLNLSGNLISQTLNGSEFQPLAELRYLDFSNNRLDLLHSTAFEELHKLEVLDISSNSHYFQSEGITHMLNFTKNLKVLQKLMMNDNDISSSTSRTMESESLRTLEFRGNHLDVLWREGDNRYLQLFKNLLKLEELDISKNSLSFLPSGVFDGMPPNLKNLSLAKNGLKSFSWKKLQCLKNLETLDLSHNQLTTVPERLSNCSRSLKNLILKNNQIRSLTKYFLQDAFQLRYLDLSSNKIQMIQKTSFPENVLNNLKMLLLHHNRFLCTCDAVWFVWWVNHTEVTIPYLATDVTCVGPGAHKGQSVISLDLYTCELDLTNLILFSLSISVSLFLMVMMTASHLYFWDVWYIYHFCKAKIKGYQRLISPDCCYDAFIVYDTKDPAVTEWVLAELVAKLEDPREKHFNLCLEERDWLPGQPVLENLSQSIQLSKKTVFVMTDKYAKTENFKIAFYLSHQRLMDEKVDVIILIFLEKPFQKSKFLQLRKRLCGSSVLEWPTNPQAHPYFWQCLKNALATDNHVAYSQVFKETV
Assay: HEK-Blue hTLR7 reporter assay (NF-kB-induced SEAP, Quanti-Blue)
Assay type: cell-based
Procedure: HEK-Blue™ hTLR7 cells were incubated in HEK-Blue™ Detection medium and stimulated with increasing concentrations of TLR7 or TLR8 or TLR7/8 agonists. […] The EC50 was determined from dose-response curve using Prism Software.

[1] = Table 11, TLR7 activities, read-out: EC50
[2] = Table 12, TLR7 agonists attached to a linker, read-out: TLR Agonist Payload + Linkers EC50
[3] = Table 15, drug linker, read-out: TLR Agonist + Linker (DL) - EC50
[4] = Table 15, pAF containing final metabolite, read-out: TLR Agonist + Linker + nnAA (DL-pAF) - EC50
[5] = Table 19, TLR7, drug-linkers with PEG shielding, read-out: EC50
[6] = Table 18, TLR7, PEG shielding, read-out: EC50

SMILES: CCCCOc1nc(N)c2[nH]c(=O)n(Cc3ccc(CN4CCC(CCNC(=O)C(C)(C)C)CC4)cc3)c2n1 [AXC-885, N-(2-(1-(4-((6-amino-2-butoxy-8-oxo-7H-purin-9(8H)-yl)methyl)benzyl)piperidin-4-yl)ethyl)pivalamide]
EC50 [1]: 11.3 nM

SMILES: CCCCOc1nc(N)c2[nH]c(=O)n(Cc3ccc(CN4CCC(CCNC(=O)OC(C)(C)C)CC4)cc3)c2n1 [AXC-877, tert-butyl 2-(1-(4-((6-amino-2-butoxy-8-oxo-7,8-dihydro-9H-purin-9-yl)methyl)benzyl)piperidin-4-yl)ethylcarbamate]
EC50 [1]: 5.5 nM | EC50 (text to Table 11, TLR7, read-out: EC50): < 10 nM

SMILES: CCCCOc1nc(N)c2[nH]c(=O)n(Cc3ccc(CNCCCCCCNC(=O)CON)cc3)c2n1 [AXC-882, N-(6-(4-((6-amino-2-butoxy-8-oxo-7H-purin-9(8H)-yl)methyl)benzylamino)hexyl)-2-(aminooxy)acetamide]
EC50 [2]: 551 nM | EC50 [3]: 551 nM | EC50 [4]: 343 nM

EC50 (Table 14, read-out: TLR7 EC50): 2590 nM
SMILES: CCCCc1nc2c(N)nc3ccccc3c2n1CCCCNC(=O)CON [AXC-910, reference compound]

EC50 [2]: 400 nM | EC50 [3]: 400 nM | EC50 [4]: 121 nM
SMILES: CCCCOc1nc(N)c2[nH]c(=O)n(Cc3ccc(CNC(=O)CON)cc3)c2n1 [AXC-862]

SMILES: CCCCOc1nc(N)c2[nH]c(=O)n(Cc3ccc(CN4CCC(CCN(CC(C)C)C(=O)CCOCCON)CC4)cc3)c2n1 [AXC-893, N-(2-(1-(4-((6-amino-2-butoxy-8-oxo-7H-purin-9(8H)-yl)methyl)benzyl)piperidin-4-yl)ethyl)-3-(2-(aminooxy)ethoxy)-N-isobutylpropanamide]
EC50 (Table 13, TLR7, read-out: EC50): 3120 nM

EC50 (Table 10, read-out: TLR7 EC50): > 5000 nM
SMILES: CCCCc1nc2c(N)nc3ccccc3c2n1CCCCNC(=O)c1cc(F)c(NC(=O)[C@H](CCCNC(N)=O)NC(=O)[C@@H](NC(=O)CCOCCON)C(C)C)c(F)c1 [AXC-802, N-(4-(4-amino-2-butyl-1H-imidazo[4,5-c]quinolin-1-yl)butyl)-4-((S)-2-((S)-2-(3-(2-(aminooxy)ethoxy)propanamido)-3-methylbutanamido)-5-ureidopentanamido)-3,5-difluorobenzamide]

SMILES: CCCCOc1nc(N)c2[nH]c(=O)n(Cc3ccc(CN4CCC(CCNC(C)=O)CC4)cc3)c2n1 [AXC-886, N-(2-(1-(4-((6-amino-2-butoxy-8-oxo-7H-purin-9(8H)-yl)methyl)benzyl)piperidin-4-yl)ethyl)acetamide]
EC50 [1]: 16.7 nM

SMILES: CCCCOC(=O)Nc1nc(OCCCC)nc2c1[nH]c(=O)n2Cc1ccc(CN2CCC(CCNC(=O)CON)CC2)cc1 [AXC-954, butyl (9-(4-((4-(2-(2-(aminooxy)acetamido)ethyl)piperidin-1-yl)methyl)benzyl)-2-butoxy-8-oxo-8,9-dihydro-7H-purin-6-yl)carbamate]
EC50 [5]: 111 nM

SMILES: CCCCOc1nc(N)c2[nH]c(=O)n(Cc3ccc(CN4CCC(CCNC(=O)C(C)C)CC4)cc3)c2n1 [AXC-890, N-(2-(1-(4-((6-amino-2-butoxy-8-oxo-7H-purin-9(8H)-yl)methyl)benzyl)piperidin-4-yl)ethyl)isobutyramide]
EC50 [1]: 15.3 nM

SMILES: CCCCOc1nc(N)c2[nH]c(=O)n(Cc3ccc(CN4CCC(CCNC(=O)C(C)(C)NC)CC4)cc3)c2n1 [AXC-884, N-(2-(1-(4-((6-amino-2-butoxy-8-oxo-7H-purin-9(8H)-yl)methyl)benzyl)piperidin-4-yl)ethyl)-2-methyl-2-(methylamino)propanamide]
EC50 [1]: 71.3 nM

SMILES: CCCCOc1nc(N)c2[nH]c(=O)n(Cc3ccc(CN4CCC(CCNC(=O)[C@H](CCCCNC(=O)CON)NC(=O)[C@H](C)NC(=O)[C@@H](N)C(C)C)CC4)cc3)c2n1 [AXC-923, (S)—N-(2-(1-(4-((6-amino-2-butoxy-8-oxo-7,8-dihydro-9H-purin-9-yl)methyl)benzyl)piperidin-4-yl)ethyl)-2-((S)-2-((S)-2-amino-3-methylbutanamido)propanamido)-6-(2-(aminooxy)acetamido)hexanamide]
EC50 [6]: 434 nM

SMILES: CCCCOc1nc(N)c2[nH]c(=O)n(Cc3ccc(CN4CCC(CCNC(=O)[C@H](CCCCNC(=O)CON)NC(=O)CCOCCOCCOCCOCCOCCOCCOCCOCCOCCOCCOCCOCCOCCOCCOCCOCCOCCOCCOCCOCCOCCOCCOCCOC)CC4)cc3)c2n1 [AXC-924, (S)—N-(2-(1-(4-((6-amino-2-butoxy-8-oxo-7,8-dihydro-9H-purin-9-yl)methyl)benzyl)piperidin-4-yl)ethyl)-6-(2-(aminooxy)acetamido)-2-PEG24-amidohexanamide]
EC50 [6]: 398 nM

SMILES: CCCCOc1nc(N)c2[nH]c(=O)n(Cc3ccc(CN4CCC(CCNC(=O)[C@H](Cc5ccc(OP(=O)(O)O)cc5)NC(=O)CON)CC4)cc3)c2n1 [AXC-960, (S)-4-(3-((2-(1-(4-((6-amino-2-butoxy-8-oxo-7,8-dihydro-9H-purin-9-yl)methyl)benzyl)piperidin-4-yl)ethyl)amino)-2-(2-(aminooxy)acetamido)-3-oxopropyl)phenyl dihydrogen phosphate]
EC50 [5]: 267 nM

SMILES: CCCCOc1nc(N)c2[nH]c(=O)n(Cc3ccc(CN4CCC(CCNC(=O)[C@@H](CCCCNC(=O)CCOCCOCCOCCOCCOCCOCCOCCOCCOCCOCCOCCOCCOCCOCCOCCOCCOCCOCCOCCOCCOCCOCCOCCOC)NC(=O)CON)CC4)cc3)c2n1 [AXC-959, (R)—N-(2-(1-(4-((6-amino-2-butoxy-8-oxo-7,8-dihydro-9H-purin-9-yl)methyl)benzyl)piperidin-4-yl)ethyl)-2-(2-(aminooxy)acetamido)-6-PEG24-amidohexanamide]
EC50 [5]: 551 nM

SMILES: CCCCOc1nc(N)c2[nH]c(=O)n(Cc3ccc(CN4CCC(CCNC(=O)c5ccc(N)c(OC)c5)CC4)cc3)c2n1 [AXC-895, 4-amino-N-(2-(1-(4-((6-amino-2-butoxy-8-oxo-7H-purin-9(8H)-yl)methyl)benzyl)piperidin-4-yl)ethyl)-3-methoxybenzamide]
TLR7 activity (comparison in words): highest potency among different payloads tested | EC50 (Table 13, TLR7, read-out: EC50): 11 nM

SMILES: CCCCOc1nc(N)c2[nH]c(=O)n(Cc3ccc(CN4CCC(CCNC(=O)[C@@H](CCCCNC(=O)CCOCCOCCOCCOCCOCCOCCOCCOC)NC(=O)CON)CC4)cc3)c2n1 [AXC-962, (R)—N-(2-(1-(4-((6-amino-2-butoxy-8-oxo-7,8-dihydro-9H-purin-9-yl)methyl)benzyl)piperidin-4-yl)ethyl)-2-(2-(aminooxy)acetamido)-6-(PEG8)amidohexanamide]
EC50 [5]: 453 nM

EC50 (Table 10, read-out: TLR7 EC50): 256 nM
SMILES: CCCCc1nc2c(N)nc3cccnc3c2n1CCCCNC(=O)c1cnccn1 [AXC-732, N-(4-(4-amino-2-butyl-1H-imidazo[4,5-c][1,5]naphthyridin-1-yl)butyl)pyrazine-2-carboxamide]

SMILES: CCCCOc1nc(N)c2[nH]c(=O)n(Cc3ccc(CN4CCC(CCNC(=O)[C@@H](N)CCCCNC(=O)CON)CC4)cc3)c2n1 [AXC-913, (S)-2-amino-N-(2-(1-(4-((6-amino-2-butoxy-8-oxo-7,8-dihydro-9H-purin-9-yl)methyl)benzyl)piperidin-4-yl)ethyl)-6-(2-(aminooxy)acetamido)hexanamide]
EC50 [6]: 29.6 nM

SMILES: CCCCOc1nc(N)c2[nH]c(=O)n(Cc3ccc(CN4CCC(CCNC(=O)[C@H](CCCCNC(=O)CON)NC(=O)CCCC(=O)NCCOCCOCCOCCOCCC(=O)NC(COCCC(=O)NCCOCCOCCOCCOCCOCCOCCOCCOC)(COCCC(=O)NCCOCCOCCOCCOCCOCCOCCOCCOC)COCCC(=O)NCCOCCOCCOCCOCCOCCOCCOCCOC)CC4)cc3)c2n1 [AXC-945, (S)—N-(2-(1-(4-((6-amino-2-butoxy-8-oxo-7,8-dihydro-9H-purin-9-yl)methyl)benzyl)piperidin-4-yl)ethyl)-6-(2-(aminooxy)acetamido)-2-dPEG4-(m-dPEG8)3-amidohexanamide]
EC50 [5]: 232 nM

SMILES: CCCCOc1nc(N)c2[nH]c(=O)n(Cc3ccc(CN4CCC(CCNC(=O)[C@H](CCCCNC(=O)CCOCCOCCOCCOCCOCCOCCOCCOC)NC(=O)CON)CC4)cc3)c2n1 [AXC-950, (S)—N-(2-(1-(4-((6-amino-2-butoxy-8-oxo-7,8-dihydro-9H-purin-9-yl)methyl)benzyl)piperidin-4-yl)ethyl)-2-(2-(aminooxy)acetamido)-6-PEG8-amidohexanamide]
EC50 [5]: 443 nM
